Laboratory results from paper PMC10970644, “Molecular Pharmacology of Gelsemium Alkaloids on Inhibitory Receptors” (International Journal of Molecular Sciences, 2024).
Residue numbers refer to the chain shown, from its start. Like-named read-outs stand apart in the source and are kept apart here.

Experiments:
α2 GlyR = molecular target: T1, α2 GlyR (Rattus norvegicus, UniProt P22771); experiment: cell-based; type: cell-based
T1 construct: The cells were transfected with plasmids encoding the following proteins; expressed in transfected cells; host or cells: HEK293 (ATCC CRL-1573)
T1 sequence (P22771 28-452): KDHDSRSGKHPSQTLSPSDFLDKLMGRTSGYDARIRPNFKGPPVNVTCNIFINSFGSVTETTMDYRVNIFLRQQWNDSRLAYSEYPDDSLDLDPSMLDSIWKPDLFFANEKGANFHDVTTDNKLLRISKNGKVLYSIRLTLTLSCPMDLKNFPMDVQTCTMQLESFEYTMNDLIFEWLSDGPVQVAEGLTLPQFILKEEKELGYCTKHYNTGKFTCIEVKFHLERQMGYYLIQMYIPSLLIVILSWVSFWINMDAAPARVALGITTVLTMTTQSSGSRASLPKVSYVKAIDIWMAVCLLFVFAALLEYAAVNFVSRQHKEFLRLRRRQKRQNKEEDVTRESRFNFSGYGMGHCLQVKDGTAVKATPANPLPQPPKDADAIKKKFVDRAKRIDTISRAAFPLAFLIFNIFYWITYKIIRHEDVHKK
Protocol: (§1) The cells were transfected with plasmids encoding the following proteins: (i). rat GlyR α (1, 2, 3) subunits alone or combined with rat β subunits (Uniprot Accession Numbers: Q546L7, P22771, P20236, P20781); and (ii). rat GABAAR α1 combined with rat β2 and γ2 subunits (Uniprot Accession Numbers: P62813, P63138, P18508). The EGFP expression was used as a marker of successful protein expression. The transfection was performed using Lipofectamine 2000 (Invitrogen, ThermoFisher, Carlsbad, CA, USA) using the fabricant protocol. The plasmids used to express GlyRs and GABAARs have been previously described. To track the successful expression of GlyR β subunits and the GABAA γ2 or β2 subunit, these proteins were subcloned in the pIRES2-EGFP vector. The transfection ratio to obtain β-containing GlyRs was 1:5 of α:β, while the expression of γ2-containing GABAA receptors was 1:2:5 of α:β:γ2 [14, 15]. Chimeric GlyRs were described in a previous report. Site directed mutagenesis was performed by Charm Gene Science Mutagenex LLC. (Cumming, GA, USA). All the constructs were checked by full-length sequencing (SNPSaurus, Eugene, OR, USA).
(§2) In brief, patch electrodes (3–4 MΩ) were pulled from borosilicate glasses in a PC-100 puller (Narishige, Tokyo, Japan); then, they were filled with an intracellular solution, which contained (in mM) 120 CsCl, 8 EGTA, 10 HEPES (pH 7.4), 4 MgCl2, 0.5 GTP, and 2 ATP. The extracellular solution contained (in mM) 140 NaCl, 5.4 KCl, 2.0 CaCl2, 1.0 MgCl2, 10 HEPES (pH 7.4), and 10 glucose. Whole-cell patch-clamp recordings were performed at −60 mV with an Axoclamp 200B (Molecular Devices, Sunnyvale, CA, USA) or with HEKA EPC-10 (HEKA Elektronik GmbH, Reutlingen, Germany) amplifiers. […] Brief (3–5 s) pulses of agonist together with alkaloids were applied to cells. Stock solutions of the alkaloids were prepared in high purity distilled water. Aliquots of these stock solutions were diluted in reservoirs containing extracellular solution. […] The concentration–response curve parameters for the alkaloid inhibition (IC50, nH, and the maximal current inhibition) were obtained from the fitted curve of normalized concentration–response data points to the equation Iagonist = Imax (agonist)nH/((agonist)nH + (EC50)nH). The IC50 curves are best-fit mean ± SE from pooled data. […] The inhibition constant (Ki) was calculated using the Cheng–Prusoff equation (Ki = IC50/((2 + ([Agonist]/EC50)^nH)^1/nH − 1). The concentration of agonist corresponds to the sub-saturating agonist concentration used to obtain the IC50 for each alkaloid on a given GlyR subtype.

α1GlyR F63A = molecular target: T2, α1GlyR F63A (Rattus norvegicus, UniProt P07727, F91A); type: cell-based
T2 construct: expressed in transfected cells; host or cells: HEK293 (ATCC CRL-1573)
T2 sequence (P07727 29-457 F91A): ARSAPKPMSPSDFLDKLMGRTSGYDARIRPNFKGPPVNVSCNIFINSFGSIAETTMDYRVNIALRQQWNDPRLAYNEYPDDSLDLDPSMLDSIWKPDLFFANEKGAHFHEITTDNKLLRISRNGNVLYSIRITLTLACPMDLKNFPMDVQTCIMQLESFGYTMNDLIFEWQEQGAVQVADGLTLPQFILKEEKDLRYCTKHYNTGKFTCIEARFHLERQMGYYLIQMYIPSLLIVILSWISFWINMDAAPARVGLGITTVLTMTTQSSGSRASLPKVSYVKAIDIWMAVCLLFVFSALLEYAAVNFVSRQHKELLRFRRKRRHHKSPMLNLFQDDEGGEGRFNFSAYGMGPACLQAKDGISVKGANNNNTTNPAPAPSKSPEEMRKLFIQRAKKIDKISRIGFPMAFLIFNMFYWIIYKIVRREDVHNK
Protocol: as §1, §2

α1GlyR G160E = molecular target: T3, α1GlyR G160E (Rattus norvegicus, UniProt P07727, G188E); type: cell-based
T3 construct: expressed in transfected cells; host or cells: HEK293 (ATCC CRL-1573)
T3 sequence (P07727 29-457 G188E): T2 sequence (P07727 29-457 F91A) with A63F, G160E
Protocol: as §1, §2

[1] = cited from earlier work

Row | Structure (SMILES) | effect on glycine-evoked currents (in words) (α2 GlyR; wild-type, 50 μM gelsemine, 60 μM glycine) | alkaloid sensitivity of glycine-evoked currents (in words) (α1GlyR F63A; F63A, gelsemine 10 μM or 200 μM, 2 mM glycine) | alkaloid sensitivity of glycine-evoked currents (in words) (α1GlyR G160E; G160E, gelsemine 10 μM or 200 μM, 1 mM glycine) | residue in brain tissue after systemic application [1] | EC50 (α2 GlyR; read-out: EC50 of agonist) | IC50 (α2 GlyR) | nH (α2 GlyR; Hill coefficient of inhibition curve) | Ki (α2 GlyR; calculated using the Cheng–Prussof equation) | alkaloid sensitivity of glycine-evoked currents (in words) (α1GlyR F63A) | alkaloid sensitivity of glycine-evoked currents (in words) (α1GlyR G160E)
1 | C=C[C@]12CN(C)[C@@H]3[C@H]4CO[C@H](C[C@H]41)[C@]1(C(=O)Nc4ccccc41)[C@@H]32 [gelsemine] | inhibited | insensitive | insensitive | detectable in brain tissue after 3 days |  |  |  |  |  | 
2 | NCC(=O)O [glycine, reference compound] |  |  |  |  | 91 ± 6 µM |  |  |  |  | 
3 | C=C[C@@]12CN(C)[C@H]3C[C@]14C(=Nc1ccccc14)[C@H]1C[C@@H]2[C@@H]3CO1 [koumine] |  |  |  | fully depleted after 1 day |  | 11.2 ± 2.1 µM | 1.0 ± 0.2 | 44.2 ± 4.6 µM | not exert detectable effects | not exert detectable effects
